Key:
Assay in all cases: biochemical
Design in all cases: KINOMEscan competition binding, DNA-tagged kinase against immobilised ligand, qPCR read-out
Conditions in all cases: read-out: Percent Control
GSK3A = GSK3A (Homo sapiens, UniProt P49840)
CDK15 = CDK15 (Homo sapiens, UniProt Q96Q40)
MINK1 = MINK1 (Homo sapiens, UniProt Q8N4C8)
TNK1 = TNK1 (Homo sapiens, UniProt Q13470)
SGK1 = SGK1 (Homo sapiens, UniProt O00141)
[1] = target: T1, RPS6KA4(Kin.Dom.1-N-terminal) (Homo sapiens, UniProt O75676)
T1 construct: Kin.Dom.1 N-terminal

TNIK = TNIK (Homo sapiens, UniProt Q9UKE5)
NEK11 = NEK11 (Homo sapiens, UniProt Q8NG66)
STK25 = STK25 (Homo sapiens, UniProt O00506)
IRAK4 = IRAK4 (Homo sapiens, UniProt Q9NWZ3)
WNK1 = WNK1 (Homo sapiens, UniProt Q9H4A3)
Sequence of WNK1 (Q9H4A3 whole entry): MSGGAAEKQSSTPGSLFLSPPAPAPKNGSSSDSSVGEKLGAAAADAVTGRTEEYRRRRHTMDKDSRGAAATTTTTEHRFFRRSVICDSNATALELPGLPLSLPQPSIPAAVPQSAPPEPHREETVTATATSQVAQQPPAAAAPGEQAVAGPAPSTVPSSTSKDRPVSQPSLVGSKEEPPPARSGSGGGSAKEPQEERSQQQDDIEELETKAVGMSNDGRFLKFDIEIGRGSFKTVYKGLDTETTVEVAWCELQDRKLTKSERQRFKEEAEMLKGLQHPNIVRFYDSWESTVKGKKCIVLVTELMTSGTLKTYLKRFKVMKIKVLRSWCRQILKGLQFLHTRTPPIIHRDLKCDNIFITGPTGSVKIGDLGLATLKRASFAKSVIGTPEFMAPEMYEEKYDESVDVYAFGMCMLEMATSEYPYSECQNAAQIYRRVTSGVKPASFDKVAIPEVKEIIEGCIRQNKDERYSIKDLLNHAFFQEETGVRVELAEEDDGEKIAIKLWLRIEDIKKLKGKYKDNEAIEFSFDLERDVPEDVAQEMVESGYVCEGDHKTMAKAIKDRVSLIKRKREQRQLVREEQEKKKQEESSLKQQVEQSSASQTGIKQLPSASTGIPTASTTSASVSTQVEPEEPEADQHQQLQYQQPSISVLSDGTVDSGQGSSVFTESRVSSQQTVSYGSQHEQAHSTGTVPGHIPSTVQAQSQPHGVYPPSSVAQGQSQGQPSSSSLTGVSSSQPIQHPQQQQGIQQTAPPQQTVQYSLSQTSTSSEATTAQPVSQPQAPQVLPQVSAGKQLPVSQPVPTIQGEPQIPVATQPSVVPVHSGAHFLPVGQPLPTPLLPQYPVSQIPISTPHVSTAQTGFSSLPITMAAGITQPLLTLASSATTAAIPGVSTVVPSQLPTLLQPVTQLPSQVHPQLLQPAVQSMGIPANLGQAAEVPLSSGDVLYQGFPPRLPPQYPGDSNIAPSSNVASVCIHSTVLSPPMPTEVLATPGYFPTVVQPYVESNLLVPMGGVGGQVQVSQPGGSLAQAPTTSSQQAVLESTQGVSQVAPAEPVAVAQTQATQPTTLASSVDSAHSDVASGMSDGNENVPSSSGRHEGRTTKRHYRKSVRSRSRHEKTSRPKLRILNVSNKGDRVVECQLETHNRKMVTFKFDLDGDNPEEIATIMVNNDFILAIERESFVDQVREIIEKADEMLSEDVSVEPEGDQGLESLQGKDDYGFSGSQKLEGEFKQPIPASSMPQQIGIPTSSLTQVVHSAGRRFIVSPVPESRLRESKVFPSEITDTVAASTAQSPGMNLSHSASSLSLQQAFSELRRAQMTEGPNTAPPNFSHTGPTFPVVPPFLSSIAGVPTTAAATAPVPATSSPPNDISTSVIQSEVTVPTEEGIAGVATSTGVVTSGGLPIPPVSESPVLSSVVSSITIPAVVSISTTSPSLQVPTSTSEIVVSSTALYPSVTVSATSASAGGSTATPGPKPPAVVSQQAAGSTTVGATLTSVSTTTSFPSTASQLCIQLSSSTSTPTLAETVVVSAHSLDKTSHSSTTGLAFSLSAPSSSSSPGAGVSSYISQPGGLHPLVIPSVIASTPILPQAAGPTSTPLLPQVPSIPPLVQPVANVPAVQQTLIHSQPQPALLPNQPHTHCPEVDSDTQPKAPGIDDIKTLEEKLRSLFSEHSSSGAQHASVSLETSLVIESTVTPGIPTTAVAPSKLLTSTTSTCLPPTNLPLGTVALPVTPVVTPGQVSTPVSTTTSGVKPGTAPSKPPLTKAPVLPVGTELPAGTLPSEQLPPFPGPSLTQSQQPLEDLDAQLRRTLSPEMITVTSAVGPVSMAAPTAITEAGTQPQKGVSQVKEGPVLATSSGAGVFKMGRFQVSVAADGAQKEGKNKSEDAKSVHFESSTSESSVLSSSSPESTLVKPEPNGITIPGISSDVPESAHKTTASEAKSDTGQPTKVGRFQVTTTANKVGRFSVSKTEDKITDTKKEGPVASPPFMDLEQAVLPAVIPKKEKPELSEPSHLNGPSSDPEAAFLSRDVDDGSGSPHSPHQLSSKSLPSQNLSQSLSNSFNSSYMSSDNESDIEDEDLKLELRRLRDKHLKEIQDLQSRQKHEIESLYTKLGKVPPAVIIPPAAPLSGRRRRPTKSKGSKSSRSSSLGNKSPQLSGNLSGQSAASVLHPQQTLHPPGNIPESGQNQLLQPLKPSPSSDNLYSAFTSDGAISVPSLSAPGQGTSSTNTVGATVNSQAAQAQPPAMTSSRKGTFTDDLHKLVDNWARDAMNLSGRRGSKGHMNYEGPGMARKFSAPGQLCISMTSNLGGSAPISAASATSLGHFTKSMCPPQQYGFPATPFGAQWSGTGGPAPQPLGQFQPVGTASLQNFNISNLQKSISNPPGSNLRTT

[2] = target: T2, RSK2(Kin.Dom.1-N-terminal) (Homo sapiens, UniProt P51812)
T2 construct: gene RPS6KA3; Kin.Dom.1 N-terminal

[3] = target: T3, JAK1(JH2domain-pseudokinase) (Homo sapiens, UniProt P23458)
T3 construct: JH2 domain pseudokinase

MYLK4 = MYLK4 (Homo sapiens, UniProt Q86YV6)
Sequence of MYLK4 (Q86YV6 whole entry): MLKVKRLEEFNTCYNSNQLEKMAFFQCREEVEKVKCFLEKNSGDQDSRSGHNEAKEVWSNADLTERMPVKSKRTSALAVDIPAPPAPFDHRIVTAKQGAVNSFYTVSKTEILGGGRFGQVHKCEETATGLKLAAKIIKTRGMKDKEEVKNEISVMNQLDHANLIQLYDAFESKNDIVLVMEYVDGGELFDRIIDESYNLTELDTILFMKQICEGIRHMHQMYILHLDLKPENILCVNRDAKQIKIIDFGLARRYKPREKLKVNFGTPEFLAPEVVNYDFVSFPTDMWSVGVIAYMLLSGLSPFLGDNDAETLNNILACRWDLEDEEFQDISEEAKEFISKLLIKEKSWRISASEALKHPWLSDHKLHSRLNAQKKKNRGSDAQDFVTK

PRKD3 = PRKD3 (Homo sapiens, UniProt O94806)
PIK3C3 = PIK3C3 (Homo sapiens, UniProt Q8NEB9)
PTK2B = PTK2B (Homo sapiens, UniProt Q14289)
CSNK1G1 = CSNK1G1 (Homo sapiens, UniProt Q9HCP0)
MAPKAPK2 = MAPKAPK2 (Homo sapiens, UniProt P49137)
Sequence of MAPKAPK2 (P49137 whole entry): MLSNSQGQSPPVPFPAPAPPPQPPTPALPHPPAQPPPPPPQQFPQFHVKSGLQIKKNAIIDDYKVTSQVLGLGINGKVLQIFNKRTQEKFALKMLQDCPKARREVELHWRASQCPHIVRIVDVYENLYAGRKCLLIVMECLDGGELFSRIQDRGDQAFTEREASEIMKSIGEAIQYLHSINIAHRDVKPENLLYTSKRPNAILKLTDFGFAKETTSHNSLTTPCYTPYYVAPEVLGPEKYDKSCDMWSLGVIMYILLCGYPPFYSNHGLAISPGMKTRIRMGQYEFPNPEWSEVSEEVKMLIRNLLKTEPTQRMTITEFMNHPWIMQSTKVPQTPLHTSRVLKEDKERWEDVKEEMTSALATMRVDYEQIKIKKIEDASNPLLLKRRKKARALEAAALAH

Sequence of MINK1 (Q8N4C8 whole entry): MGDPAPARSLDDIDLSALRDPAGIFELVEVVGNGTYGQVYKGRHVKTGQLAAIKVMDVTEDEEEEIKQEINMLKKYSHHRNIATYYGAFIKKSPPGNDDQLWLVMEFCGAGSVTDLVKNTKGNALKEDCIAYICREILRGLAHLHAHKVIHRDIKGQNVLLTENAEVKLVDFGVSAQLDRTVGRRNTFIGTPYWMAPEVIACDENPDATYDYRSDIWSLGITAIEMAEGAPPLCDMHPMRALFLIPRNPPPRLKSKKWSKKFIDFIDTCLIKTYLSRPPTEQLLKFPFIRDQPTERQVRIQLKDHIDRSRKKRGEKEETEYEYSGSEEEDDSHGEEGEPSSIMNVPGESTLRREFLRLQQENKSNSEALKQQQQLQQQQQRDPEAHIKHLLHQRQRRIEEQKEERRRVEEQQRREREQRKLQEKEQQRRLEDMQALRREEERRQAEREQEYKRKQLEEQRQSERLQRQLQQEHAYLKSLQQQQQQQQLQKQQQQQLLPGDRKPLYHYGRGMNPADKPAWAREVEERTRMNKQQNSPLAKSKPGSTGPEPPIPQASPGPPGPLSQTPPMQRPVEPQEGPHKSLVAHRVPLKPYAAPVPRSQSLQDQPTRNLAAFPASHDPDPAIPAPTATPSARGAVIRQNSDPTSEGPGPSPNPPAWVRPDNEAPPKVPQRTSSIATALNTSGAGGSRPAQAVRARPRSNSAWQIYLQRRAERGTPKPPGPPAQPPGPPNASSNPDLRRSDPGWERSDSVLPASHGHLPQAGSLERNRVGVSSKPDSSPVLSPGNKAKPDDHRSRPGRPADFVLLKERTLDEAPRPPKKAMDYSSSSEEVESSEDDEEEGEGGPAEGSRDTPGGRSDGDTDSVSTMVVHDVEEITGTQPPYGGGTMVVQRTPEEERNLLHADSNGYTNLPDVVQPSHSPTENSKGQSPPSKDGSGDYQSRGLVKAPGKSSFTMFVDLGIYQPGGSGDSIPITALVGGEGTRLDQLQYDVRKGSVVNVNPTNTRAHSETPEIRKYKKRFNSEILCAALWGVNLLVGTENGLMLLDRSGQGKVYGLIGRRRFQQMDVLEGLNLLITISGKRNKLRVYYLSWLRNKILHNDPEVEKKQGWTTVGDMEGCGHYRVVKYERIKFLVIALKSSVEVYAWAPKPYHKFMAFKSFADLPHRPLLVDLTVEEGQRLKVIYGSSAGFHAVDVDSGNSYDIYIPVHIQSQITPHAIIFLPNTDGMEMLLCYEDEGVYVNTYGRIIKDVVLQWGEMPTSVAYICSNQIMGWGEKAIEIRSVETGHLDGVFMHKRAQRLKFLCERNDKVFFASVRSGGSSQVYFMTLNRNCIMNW
Sequence of CDK15 (Q96Q40 whole entry): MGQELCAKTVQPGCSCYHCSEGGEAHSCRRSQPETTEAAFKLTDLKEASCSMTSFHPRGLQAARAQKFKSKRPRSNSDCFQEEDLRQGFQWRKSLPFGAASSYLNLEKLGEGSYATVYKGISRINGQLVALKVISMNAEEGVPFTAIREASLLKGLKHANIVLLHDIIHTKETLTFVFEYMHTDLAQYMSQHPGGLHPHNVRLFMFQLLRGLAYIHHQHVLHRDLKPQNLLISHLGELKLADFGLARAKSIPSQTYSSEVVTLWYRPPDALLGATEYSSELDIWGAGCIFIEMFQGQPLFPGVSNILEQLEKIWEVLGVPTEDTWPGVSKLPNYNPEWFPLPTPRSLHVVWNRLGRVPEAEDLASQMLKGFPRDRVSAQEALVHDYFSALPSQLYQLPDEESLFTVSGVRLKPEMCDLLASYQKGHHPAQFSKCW

Compound: Oc1ccc(C2=Cc3ccc(O)cc3OC2)cc1 [compound 1, idronoxil]
- remaining binding at 10 µM (GSK3A): 74%
- remaining binding at 10 µM (CDK15): 99%
- remaining binding at 10 µM (MINK1): 38%
- remaining binding at 10 µM (TNK1): 76%
- remaining binding at 10 µM (SGK1): 77%
- remaining binding at 10 µM [1]: 83%
- remaining binding at 10 µM (TNIK): 56%
- remaining binding at 10 µM (NEK11): 61%
- remaining binding at 10 µM (STK25): 77%
- remaining binding at 10 µM (IRAK4): 79%
- remaining binding at 10 µM (WNK1): 83%
- remaining binding at 10 µM [2]: 57%
- remaining binding at 10 µM [3]: 90%
- remaining binding at 10 µM (MYLK4): 26%
- remaining binding at 10 µM (PRKD3): 85%
- remaining binding at 10 µM (PIK3C3): 34%
- remaining binding at 10 µM (PTK2B): 99%
- remaining binding at 10 µM (CSNK1G1): 95%
- remaining binding at 10 µM (MAPKAPK2): 65%

Source: article PMC10507085, “Pharmacological inhibition of TBK1/IKKε blunts immunopathology in a murine model of SARS-CoV-2 infection” (Nature Communications, 2023)
